From ChEMBL document CHEMBL4229568, “Discovery of natural flavonoids as activators of Nrf2-mediated defense system: Structure-activity relationship and inhibition of intracellular oxidative insults” (Bioorg Med Chem, 2018)
The source made the active and inactive calls. No cut-off for these calls is given here.

How the values were obtained:
[1] = target: T1, Nuclear factor erythroid 2-related factor 2 (Homo sapiens) (UniProt Q16236); experiment: Activation of Nrf2 in human BEAS2B cells assessed as upregulation of NQO1 protein expression at 6.25 uM pretreated for 1 hr followed by co-treatment with PERK inhibitor GSK2606414 for 18 hrs by immunoblot analysis; format: cell-based
T1 sequence (whole entry): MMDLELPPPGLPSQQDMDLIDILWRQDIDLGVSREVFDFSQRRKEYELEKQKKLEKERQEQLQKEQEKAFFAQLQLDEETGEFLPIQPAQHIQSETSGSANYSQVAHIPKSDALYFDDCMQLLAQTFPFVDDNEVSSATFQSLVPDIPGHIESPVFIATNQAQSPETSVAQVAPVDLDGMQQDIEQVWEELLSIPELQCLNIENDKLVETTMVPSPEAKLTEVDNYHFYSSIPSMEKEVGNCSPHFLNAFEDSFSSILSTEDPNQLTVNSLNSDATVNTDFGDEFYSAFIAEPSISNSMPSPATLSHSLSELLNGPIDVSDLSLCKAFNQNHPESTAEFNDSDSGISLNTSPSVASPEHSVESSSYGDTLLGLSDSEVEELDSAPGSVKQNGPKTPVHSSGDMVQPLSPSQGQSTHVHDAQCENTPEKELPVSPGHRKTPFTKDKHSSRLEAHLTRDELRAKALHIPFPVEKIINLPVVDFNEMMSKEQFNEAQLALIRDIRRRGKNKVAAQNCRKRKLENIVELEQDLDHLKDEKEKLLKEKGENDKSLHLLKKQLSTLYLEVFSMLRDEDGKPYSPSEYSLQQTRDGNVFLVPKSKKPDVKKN

[2] = target: T1, Nuclear factor erythroid 2-related factor 2 (Homo sapiens); experiment: Activation of Nrf2 in human BEAS2B cells assessed as upregulation of Nrf2 protein expression at 6.25 uM after 48 hrs by immunoblot analysis; format: cell-based
[3] = target: T2, Nuclear factor erythroid 2-related factor 2 (Mus musculus) (UniProt Q60795); experiment: Activation of Nrf2 in mouse Heap1c1c7 cells assessed as induction of NAD(P)H:quinone reductase activity at 6.25 uM pretreated for 1 hr followed by co-treatment with p38 MAPK inhibitor SB203580 for 24 hrs; format: cell-based
T2 sequence (whole entry): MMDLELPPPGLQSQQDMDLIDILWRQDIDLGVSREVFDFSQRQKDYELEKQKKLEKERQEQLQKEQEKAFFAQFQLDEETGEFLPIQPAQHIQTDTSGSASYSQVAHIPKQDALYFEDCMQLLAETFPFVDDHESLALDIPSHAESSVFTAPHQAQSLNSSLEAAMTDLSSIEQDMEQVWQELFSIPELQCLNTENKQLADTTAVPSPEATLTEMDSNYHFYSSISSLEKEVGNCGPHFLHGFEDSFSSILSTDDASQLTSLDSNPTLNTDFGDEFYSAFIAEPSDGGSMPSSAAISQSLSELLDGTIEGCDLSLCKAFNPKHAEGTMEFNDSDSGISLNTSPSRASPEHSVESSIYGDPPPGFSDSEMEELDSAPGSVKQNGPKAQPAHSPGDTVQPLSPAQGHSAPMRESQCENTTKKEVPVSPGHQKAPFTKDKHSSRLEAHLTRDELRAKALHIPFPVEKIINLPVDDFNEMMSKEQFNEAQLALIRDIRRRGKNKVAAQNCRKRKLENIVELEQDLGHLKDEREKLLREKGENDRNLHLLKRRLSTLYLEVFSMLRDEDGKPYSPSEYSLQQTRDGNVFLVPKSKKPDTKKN

MDA-MB-231 = experiment: Cytotoxicity against human MDA-MB-231 cells assessed as decrease in cell viability at 3.12 to 100 uM after 24 hrs by MTT assay; format: cell-based; conditions: mda-mb-231, 24 h
[4] = target: T2, Nuclear factor erythroid 2-related factor 2 (Mus musculus); experiment: Activation of Nrf2 in mouse Heap1c1c7 cells assessed as induction of NAD(P)H:quinone reductase activity at 6.25 uM pretreated for 1 hr followed by co-treatment with PI3K inhibitor wortmannin for 24 hrs; format: cell-based
[5] = target: T1, Nuclear factor erythroid 2-related factor 2 (Homo sapiens); experiment: Activation of Nrf2 in human BEAS2B cells assessed as upregulation of gamma-GCS protein expression at 6.25 uM after 8 to 24 hrs by immunoblot analysis; format: cell-based
[6] = target: T1, Nuclear factor erythroid 2-related factor 2 (Homo sapiens); experiment: Induction of Nrf2 translocation from cytoplasm to nucleus in human BEAS2B cells at 6.25 uM after 18 hrs by DAPI staining-based immunofluorescence analysis; format: cell-based
BEAS-2B [7] = experiment: Cytoprotective activity in human BEAS2B cells assessed as decrease in 5 to 20 uM As(+3)-induced cell death at 6.25 uM preincubated for 8 hrs followed by As(+3) challenge and measured after 24 hrs by MTT assay; format: functional, cell-based
[8] = target: T1, Nuclear factor erythroid 2-related factor 2 (Homo sapiens); experiment: Activation of Nrf2 in human BEAS2B cells assessed as upregulation of NQO1 protein expression at 3.12 to 25 uM after 12 hrs by immunoblot analysis; format: cell-based
[9] = target: T1, Nuclear factor erythroid 2-related factor 2 (Homo sapiens); experiment: Activation of Nrf2 in human BEAS2B cells assessed as upregulation of Nrf2 protein expression at 6.25 uM pretreated for 1 hr followed by co-treatment with PERK inhibitor GSK2606414 for 18 hrs by immunoblot analysis; format: cell-based
BEAS-2B [10] = experiment: Cytotoxicity against human BEAS2B cells assessed as decrease in cell viability at 6.25 after 24 hrs by MTT assay; format: cell-based
[11] = target: T2, Nuclear factor erythroid 2-related factor 2 (Mus musculus); experiment: Activation of Nrf2 in mouse Heap1c1c7 cells assessed as induction of NAD(P)H:quinone reductase activity at 6.25 uM pretreated for 1 hr followed by co-treatment with PI3K inhibitor LY294002 for 24 hrs; format: cell-based
[12] = target: T1, Nuclear factor erythroid 2-related factor 2 (Homo sapiens); experiment: Activation of Nrf2 in human BEAS2B cells assessed as upregulation of Nrf2 protein expression at 0.31 to 20 uM after 18 hrs by immunoblot analysis; format: cell-based
[13] = target: T1, Nuclear factor erythroid 2-related factor 2 (Homo sapiens); experiment: Activation of Nrf2 in human BEAS2B cells assessed as upregulation of gamma-GCS protein expression at 50 to 100 uM after 18 hrs by immunoblot analysis; format: cell-based
[14] = target: T1, Nuclear factor erythroid 2-related factor 2 (Homo sapiens); experiment: Activation of Nrf2 in human MDA-MB-231 cells assessed as upregulation of gamma-GCS protein expression after 16 hrs by immunoblot analysis; format: cell-based
[15] = target: T1, Nuclear factor erythroid 2-related factor 2 (Homo sapiens); experiment: Activation of Nrf2 in human BEAS2B cells assessed as upregulation of Nrf2 protein expression at 6.25 uM pretreated for 1 hr followed by co-treatment with PI3K inhibitor LY294002 for 18 hrs by immunoblot analysis; format: cell-based
[16] = target: T1, Nuclear factor erythroid 2-related factor 2 (Homo sapiens); experiment: Activation of Nrf2 in human BEAS2B cells assessed as upregulation of Nrf2 protein expression at 6.25 uM after 8 to 24 hrs by immunoblot analysis; format: cell-based
BEAS-2B [17] = experiment: Cytoprotective activity in human BEAS2B cells assessed as decrease in As(+3)-induced cell death at 3.12 to 25 uM preincubated for 8 hrs followed by As(+3) challenge and measured after 24 hrs by MTT assay; format: functional, cell-based
BEAS-2B [18] = experiment: Cytoprotective activity in human BEAS2B cells transfected with Nrf2-SiRNA assessed as decrease in As(+3)-induced cell death at 6.25 uM preincubated for 8 hrs followed by As(+3) challenge and measured after 24 hrs by MTT assay; format: functional, cell-based
BEAS-2B [19] = experiment: Cytoprotective activity in human BEAS2B cells assessed as decrease in As(+3)-induced cell apoptosis at 6.25 uM preincubated for 8 hrs followed by As(+3) challenge and measured after 24 hrs by annexin V-FITC/propidium iodide staining-based flow cytometric method; format: functional

- Activity [1]: inactive
- Activity [2]: inactive
- Activity [3]: inactive
- Activity [4]: Active
- Activity [5]: Active
- Activity [6]: Active
- Activity [8]: Active
- Activity [9]: inactive
- Activity [11]: inactive
- Activity [12]: Dose-dependent effect
- Activity [13]: inactive
- Activity [14]: Dose-dependent effect
- Activity [15]: inactive
- Activity [16]: Active
SMILES: COc1ccc(-c2coc3cc(OC)cc(O)c3c2=O)cc1 [4',7-DIMETHOXY-5-HYDROXYGENISTEIN]
- Activity (MDA-MB-231): Non-Toxic
- Activity (BEAS-2B [7]): Active
- Activity (BEAS-2B [10]): Non-Toxic
- Activity (BEAS-2B [17]): Active
- Activity (BEAS-2B [18]): inactive
- Activity (BEAS-2B [19]): Active
